This is an account of results in patent publication US9173392B2, “Emulsifiable concentrate” (priority 2010, dated 2015).

Series [1] is described as follows: Active component solubility in solvents at 10° C. and 54° C. (visual, HPLC for undissolved samples). The settings on record: for Approximate Percent (%) Solubility Determination of Active Components in Solvents (Malathion At 10° C.) / Approximate Percent (%) Solubility Determination of Active Components in Solvents (Malathion At 54° C.): 20 g Malathion in 10 g solvent; for Approximate Percent (%) Solubility Determination of Active Components in Solvents (Malathion At 10° C.) / Approximate Percent (%) Solubility Determination of Active Components in Solvents (Metolachlor At 10° C.): about two weeks at 10° C.; for Approximate Percent (%) Solubility Determination of Active Components in Solvents (Malathion At 10° C.) / Approximate Percent (%) Solubility Determination of Active Components in Solvents (Malathion At 54° C.) / Approximate Percent (%) Solubility Determination of Active Components in Solvents (Metolachlor At 10° C.) / Approximate Percent (%) Solubility Determination of Active Components in Solvents (Metolachlor At 54° C.): totally soluble = no particles visually detectable; for Approximate Percent (%) Solubility Determination of Active Components in Solvents (Malathion At 54° C.) / Approximate Percent (%) Solubility Determination of Active Components in Solvents (Metolachlor At 54° C.): about two weeks at 54° C.; for Approximate Percent (%) Solubility Determination of Active Components in Solvents (Metolachlor At 10° C.) / Approximate Percent (%) Solubility Determination of Active Components in Solvents (Metolachlor At 54° C.): 20 g Metolachlor in 10 g solvent; for miscible in the Solvent 1 up to: active component in Solvent 1 (Examples 1-3).

Series [2] in a line: Determination of VOC content (percentage weight loss of solvent aliquot on heating). Type of series: physicochemical. The note with it: 10 mg aliquot, furnace 35° C. raised 5° C. per minute, held isothermally at 115° C. How it is done:
A series of solvents are evaluated to determine a content of volatile organic compounds (VOCs) and suitability for use in this invention. More specifically, the 1,2-cyclohexanedicarboxylic acid diisononyl ester (Hexamoll® Dinch) of this invention is evaluated as Solvent 1. Twelve additional comparative solvents (Comparative Solvents 1-12) are also evaluated.
After addition of the aliquots to the pans, the pans are placed in a furnace at 35° C. The temperature of the furnace is then raised at a rate of 5° C. per minute and held isothermally at 115° C. When mass loss stabilizes at less than 0.5% for 5 minutes, the temperature is then held at 115° C. for an additional 15 minutes. Total run times average about 80 minutes. The results of the VOC content evaluations are set forth in Table 1 below wherein all values represent percentage weight loss of the aliquot and correlate to approximate VOC content.

As to `CC1COC(=O)O1` (stereo not shown) [Comparative Solvent 5, propylene carbonate], in series [1], the “Approximate Percent (%) Solubility Determination of Active Components in Solvents (Malathion At 10° C.)” value is given as “Totally Soluble”, the “Approximate Percent (%) Solubility Determination of Active Components in Solvents (Malathion At 54° C.)” value is reported as “Totally Soluble”, the “Approximate Percent (%) Solubility Determination of Active Components in Solvents (Metolachlor At 10° C.)” value was “Totally Soluble” and the “Approximate Percent (%) Solubility Determination of Active Components in Solvents (Metolachlor At 54° C.)” value was “Totally Soluble”. Also, in series [2], the “% Total Weight Loss = VOC Content” value was determined as 100%.

As for `CC(O)CO` (stereo not shown) [Comparative Solvent 7, propylene glycol], in series [1], the “Approximate Percent (%) Solubility Determination of Active Components in Solvents (Malathion At 10° C.)” value is recorded as “Totally Soluble”, the “Approximate Percent (%) Solubility Determination of Active Components in Solvents (Malathion At 54° C.)” value was “Totally Soluble”, the “Approximate Percent (%) Solubility Determination of Active Components in Solvents (Metolachlor At 10° C.)” value is “Totally Soluble” and the “Approximate Percent (%) Solubility Determination of Active Components in Solvents (Metolachlor At 54° C.)” value is reported as “Totally Soluble”. Moreover, the “% Total Weight Loss = VOC Content” value in series [2] is 100%.

Consider `COC(=O)CCCCC(=O)OC` [Comparative Solvent 10, dimethyl adipate], for which, in series [1], the “Approximate Percent (%) Solubility Determination of Active Components in Solvents (Malathion At 10° C.)” value is “Totally Soluble”, the “Approximate Percent (%) Solubility Determination of Active Components in Solvents (Malathion At 54° C.)” value is “Totally Soluble”, the “Approximate Percent (%) Solubility Determination of Active Components in Solvents (Metolachlor At 10° C.)” value is on record as “Totally Soluble” and the “Approximate Percent (%) Solubility Determination of Active Components in Solvents (Metolachlor At 54° C.)” value is on record as “Totally Soluble”. Moreover, in series [2], the “% Total Weight Loss = VOC Content” value amounted to 100%.

With `CCOC(=O)CC(SP(=S)(OC)OC)C(=O)OCC` (stereo not shown) [Malathion], the “miscible in the Solvent 1 up to” value in series [1] is given as “approximately 66 weight percent”.

Take `CCc1cccc(C)c1N(C(=O)CCl)C(C)COC` (stereo not shown) [Metolachlor]: in series [1], the “miscible in the Solvent 1 up to” value is reported as “approximately 66 weight percent”.

For the molecule `CC(C)CCCCCCOC(=O)C1CCCCC1C(=O)OCCCCCCC(C)C` (stereo not shown) [Solvent 1, 1,2-cyclohexanedicarboxylic acid diisononyl ester], in series [1], the “Approximate Percent (%) Solubility Determination of Active Components in Solvents (Malathion At 10° C.)” value was “Totally Soluble”, the “Approximate Percent (%) Solubility Determination of Active Components in Solvents (Malathion At 54° C.)” value was “Totally Soluble”, the “Approximate Percent (%) Solubility Determination of Active Components in Solvents (Metolachlor At 10° C.)” value was “Totally Soluble” and the “Approximate Percent (%) Solubility Determination of Active Components in Solvents (Metolachlor At 54° C.)” value is “Totally Soluble”. Moreover, the “% Total Weight Loss = VOC Content” value in series [2] turned out to be 0.33%.
